# pEC50, pKi: −log10 of the molar value.
# Key:
# delta opioid receptor = target: T1, delta opioid receptor (Rattus norvegicus, UniProt P33533); test: Rat brain delta opioid receptor binding assay; details: rat forebrain membranes; ~4 nM [3H]DPDPE; read-out: δ-binding (DPDPE ligand) Ki
# T1 construct: from tissue; host or cells: forebrain of male Wistar rats
# Protocol: (§1) Procedure: Male, Wistar rats (150-250 g, VAF, Charles River, Kingston, N.Y.) were killed by CO2, and their brains were removed and placed immediately in ice cold Tris HCl buffer (50 mM, pH 7.4). The forebrains were separated from the remainder of the brain by a coronal transection, beginning dorsally at the colliculi and passing ventrally through the midbrain-pontine junction. After dissection, the forebrains were homogenized in Tris buffer in a Teflon®-glass homogenizer. The homogenate was diluted to a concentration of 1 g of forebrain tissue per 80 mL Tris and centrifuged at 39,000×g for 10 min. The pellet was resuspended in the same volume of Tris buffer containing 5 mM MgCl2 with several brief pulses from a Polytron homogenizer. This particulate preparation was used for the delta opioid binding assays. Following incubation with the delta selective peptide ligand ˜4 nM [^3H]DPDPE or 0.25 nM [^3H]naltrindole at 25° C. for 2.5 h in a 96-well plate with total volume of 1 mL, the plate contents were filtered through Wallac filtermat B sheets on a Tomtec 96-well harvester. The filters were rinsed three times with 2 mL of 10 mM HEPES (pH 7.4), and dried in a 650 W microwave oven for 1.75 min twice. To each sample area 2×50 μL of Betaplate Scint scintillation fluid (LKB) was added and the radioactivity was quantified on a LKB (Wallac) 1205 BetaPlate liquid scintillation counter.
# (§2) Analysis: The data from the scintillation counter were used to calculate either the % inhibition compared to control binding (when only a single concentration of test compound was evaluated) or a Ki value (when a range of concentrations was tested). Percent inhibition was calculated as: [(total dpm−test compound dpm)/(total dpm−nonspecific dpm)]*100. Kd and Ki values were calculated using GraphPad PRISM data analysis program.
# δ-opioid receptor = target: T2, δ-opioid receptor (Mus musculus, UniProt P32300); test: [35S]GTPγS binding assay in NG108-15 cell membranes (delta opioid functional assay); type: biochemical; details: for inhibition at 10 µM: 10 μM compound, read-out: GTPγS δ-opioid receptor % Inh @10 μM; for pEC50: read-out: GTPγS δ-opioid receptor EC50
# T2 construct: NG108-15 cell membranes were purchased from Applied Cell Sciences (Rockville, Md.); host or cells: NG108-15 cell membranes (purchased)
# T2 sequence (P32300 whole entry): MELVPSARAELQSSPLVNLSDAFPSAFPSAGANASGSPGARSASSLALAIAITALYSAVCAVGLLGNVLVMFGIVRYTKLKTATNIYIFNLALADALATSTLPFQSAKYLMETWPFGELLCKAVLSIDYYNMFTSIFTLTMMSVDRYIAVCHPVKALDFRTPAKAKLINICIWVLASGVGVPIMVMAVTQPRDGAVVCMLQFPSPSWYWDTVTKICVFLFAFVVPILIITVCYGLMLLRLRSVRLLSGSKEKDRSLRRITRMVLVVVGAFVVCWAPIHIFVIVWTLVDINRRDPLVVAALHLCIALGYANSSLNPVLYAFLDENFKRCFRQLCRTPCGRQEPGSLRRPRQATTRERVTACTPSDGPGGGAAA
# Protocol: Methods: NG108-15 cell membranes were purchased from Applied Cell Sciences (Rockville, Md.). 5 mg/mL of membrane protein was suspended in 10 mM TRIS-HCl pH 7.2, 2 mM EDTA, 10% sucrose. Membranes were maintained at 4-8° C. A 1 mL volume of membranes was added into 10 mL cold binding assay buffer. The assay buffer contained 50 mM Tris, pH 7.6, 5 mM MgCl2, 100 mM NaCl, 1 mM DTT and 1 mM EGTA. The membrane suspension was homogenized twice with a Polytron, and centrifuged at 3000 rpm for 10 min. The supernatant was then centrifuged at 18,000 rpm for 20 min. Ten mL of assay buffer was added into the pellet containing tube. The pellet and buffer were mixed with a Polytron.
# Incubation procedure: The pellet membranes (75 μg/mL) were preincubated with SPA beads (10 mg/mL) at 25° C. for 45 min in the assay buffer. The SPA beads (5 mg/mL) coupled with membranes (37.5 μg/mL) were then incubated with 0.1 nM [^35S]GTPγS in the same Tris buffer containing 100 μM GDP in total volume of 200 μL. 200 nM of receptor agonists was used to stimulate [^35S]-GTPγS binding. The basal binding was tested in the absence of agonists and non-specific binding was tested in the presence of 10 μM unlabeled GTPγS.
# Data % of Basal=(stimulated−non specific)*100/(basal−non specific). Relative Efficacy of a compound at 200 nM=(% of Basal of test compound at 200 nM)/(Calculated Max of SNC80 dose response. Curve in prism).
# mu opioid receptor = target: T3, mu opioid receptor (Rattus norvegicus, UniProt P33535); test: Rat brain mu opioid receptor binding assay; details: rat forebrain membranes; ~0.8 nM [3H]DAMGO; read-out: μ-binding Ki
# T3 construct: from tissue; host or cells: forebrain of male Wistar rats
# T3 sequence (P33535 whole entry): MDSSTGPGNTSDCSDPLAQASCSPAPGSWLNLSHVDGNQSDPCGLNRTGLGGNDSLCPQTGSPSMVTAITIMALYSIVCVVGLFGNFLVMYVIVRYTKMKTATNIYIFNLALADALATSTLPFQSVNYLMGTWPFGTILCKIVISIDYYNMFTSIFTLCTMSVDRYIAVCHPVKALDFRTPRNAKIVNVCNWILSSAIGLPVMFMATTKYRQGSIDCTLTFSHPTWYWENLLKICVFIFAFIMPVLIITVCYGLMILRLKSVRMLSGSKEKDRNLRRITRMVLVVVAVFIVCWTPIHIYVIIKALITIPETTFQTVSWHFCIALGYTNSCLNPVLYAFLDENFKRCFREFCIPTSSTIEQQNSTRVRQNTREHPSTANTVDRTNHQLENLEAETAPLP
# Protocol: as §1, with “mu” for “delta”, “ligand, ˜0.8” for “ligand ˜4”, “[^3H]DAMGO,” for “[^3H]DPDPE or 0.25 nM [^3H]naltrindole”, “total assay” for “total”, “7.4)” for “7.4),”, “2×40” for “2×50”
# as §2
# T1 sequence (P33533 whole entry): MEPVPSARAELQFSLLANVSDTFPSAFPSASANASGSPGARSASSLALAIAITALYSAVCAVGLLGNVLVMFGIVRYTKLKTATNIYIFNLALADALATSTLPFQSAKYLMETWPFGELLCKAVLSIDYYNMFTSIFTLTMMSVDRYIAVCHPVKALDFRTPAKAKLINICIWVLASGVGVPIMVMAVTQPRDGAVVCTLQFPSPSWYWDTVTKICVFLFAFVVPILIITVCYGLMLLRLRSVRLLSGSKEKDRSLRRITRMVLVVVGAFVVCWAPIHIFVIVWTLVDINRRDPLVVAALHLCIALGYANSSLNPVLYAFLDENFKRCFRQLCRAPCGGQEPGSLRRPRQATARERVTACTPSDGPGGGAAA
Structure (SMILES),pKi (delta opioid receptor),GTPγS δ-opioid receptor Rel Efficacy (δ-opioid receptor),inhibition at 10 µM (δ-opioid receptor),pEC50 (δ-opioid receptor),pKi (mu opioid receptor)
COCC#Cc1cnc(NC[C@@H]2CCCN2)c(Oc2ccc(OC)cc2)n1 [Cpd 4],8.72,0.9477,1%,7.08,5.30
"COc1ccc(Oc2nc(-c3cccnc3)cnc2NC[C@@H]2CCCN2)cc1 [Cpd 2, [3-(4-Methoxy-phenoxy)-5-pyridin-3-yl-pyrazin-2-yl]-pyrrolidin-2-(S)-ylmethyl-amine]",8.68,1.0430,1%,7.53,6.09

# Now those with a higher pKi (delta opioid receptor), led by results:
pKi (delta opioid receptor),GTPγS δ-opioid receptor Rel Efficacy (δ-opioid receptor),inhibition at 10 µM (δ-opioid receptor),pEC50 (δ-opioid receptor),pKi (mu opioid receptor),Structure (SMILES)
9.22,0.8696,6.57%,7.23,5.62,COc1ccc(Oc2nc(-c3ccc(OC)nc3)cnc2NC[C@@H]2CCCN2)cc1 [Cpd 1]
9.10,1.0302,–,6.83,6.70,COc1ccc(Oc2nc(-c3cncnc3)cnc2NC[C@@H]2CCCN2)cc1F [Cpd 8]
8.82,1.0797,1%,7.34,5.49,"COc1ccc(Oc2nc(C#Cc3cccnc3)cnc2NC[C@@H]2CCCN2)cc1 [Cpd 3, [3-(4-Methoxy-phenoxy)-5-pyridin-3-ylethynyl-pyrazin-2-yl]-pyrrolidin-2-(S)-ylmethyl-amine]"

# Reference: patent publication US8183371B2, “Pyrazines as delta opioid receptor modulators” (Janssen Pharmaceutica NV, priority 2009, dated 2012)
